Assay: molar heat capacity at constant pressure
Conditions: 101.33 kPa, Small (less than 1 g) adiabatic calorimetry

CC(C)(C)c1ccc(Oc2ccc([N+](=O)[O-])cc2)cc1 [1-(tert-butyl)-4-(4-nitrophenoxy)benzene]
Conditions | molar heat capacity at constant pressure [J/K/mol]
147.54 K, Crystal | 187.32
148.06 K, Glass | 190.82
148.34 K, Crystal | 188.16
148.86 K, Glass | 191.65
149.14 K, Crystal | 188.9
149.66 K, Glass | 192.65
149.94 K, Crystal | 189.82
150 K, Crystal | 189.82
150.46 K, Glass | 193.56
150.74 K, Crystal | 190.57
151.26 K, Glass | 194.31
151.54 K, Crystal | 191.48
152.06 K, Glass | 195.14
152.35 K, Crystal | 192.31
152.86 K, Glass | 195.97
153.15 K, Crystal | 193.23
153.66 K, Glass | 196.89
153.95 K, Crystal | 194.14
154.46 K, Glass | 197.88
154.75 K, Crystal | 194.81
155.26 K, Glass | 198.63
155.55 K, Crystal | 195.89
156.06 K, Glass | 199.63
156.35 K, Crystal | 196.72
156.86 K, Glass | 200.38
157.15 K, Crystal | 197.47
157.66 K, Glass | 201.21
157.95 K, Crystal | 198.13
158.46 K, Glass | 201.96
158.75 K, Crystal | 199.21
159.26 K, Glass | 202.87
159.55 K, Crystal | 200.21
160 K, Crystal | 200.63
160.06 K, Glass | 203.79
160.35 K, Crystal | 201.13
160.85 K, Glass | 204.7
161.15 K, Crystal | 202.12
161.95 K, Crystal | 202.71
162.45 K, Glass | 206.7
162.75 K, Crystal | 203.62
163.25 K, Glass | 207.28
163.55 K, Crystal | 204.37
164.04 K, Glass | 208.36
164.35 K, Crystal | 205.62
164.84 K, Glass | 209.11
165.15 K, Crystal | 206.53
165.64 K, Glass | 209.94
165.95 K, Crystal | 207.36
166.44 K, Glass | 210.52
166.75 K, Crystal | 208.11
167.23 K, Glass | 211.35
167.55 K, Crystal | 209.11
168.03 K, Glass | 212.35
168.34 K, Crystal | 210.11
168.81 K, Glass | 213.35
169.14 K, Crystal | 210.44
169.61 K, Glass | 214.18
169.94 K, Crystal | 211.44
170 K, Crystal | 211.44
170.41 K, Glass | 214.93
170.73 K, Crystal | 212.93
171.2 K, Glass | 216.18
171.53 K, Crystal | 213.1
172 K, Glass | 217.01
172.33 K, Crystal | 214.01
172.79 K, Glass | 217.67
173.12 K, Crystal | 214.76
173.59 K, Glass | 218.42
173.92 K, Crystal | 215.68
174.38 K, Glass | 219.58
174.72 K, Crystal | 216.59
175.18 K, Glass | 220.25
175.51 K, Crystal | 218.01
175.97 K, Glass | 221.25
176.31 K, Crystal | 218.34
176.77 K, Glass | 221.83
177.11 K, Crystal | 219.25
177.56 K, Glass | 222.49
177.91 K, Crystal | 219.83
178.36 K, Glass | 223.49
178.7 K, Crystal | 220.33
179.15 K, Glass | 224.32
179.5 K, Crystal | 221.5
179.94 K, Glass | 224.99
180 K, Crystal | 222.33
180.3 K, Crystal | 222.33
180.74 K, Glass | 225.74
181.08 K, Crystal | 223.58
181.52 K, Glass | 226.98
181.88 K, Crystal | 224.41
182.67 K, Crystal | 224.99
183.09 K, Glass | 227.73
183.47 K, Crystal | 225.82
183.89 K, Glass | 229.73
184.26 K, Crystal | 226.74
184.68 K, Glass | 230.39
185.06 K, Crystal | 227.57
185.47 K, Glass | 231.56
185.85 K, Crystal | 228.48
186.26 K, Glass | 232.14
186.65 K, Crystal | 229.15
187.05 K, Glass | 232.97
187.44 K, Crystal | 230.48
187.84 K, Glass | 233.97
188.22 K, Crystal | 231.31
188.63 K, Glass | 234.63
189.02 K, Crystal | 232.14
189.42 K, Glass | 235.47
189.81 K, Crystal | 233.3
190 K, Crystal | 233.22
190.21 K, Glass | 236.46
190.6 K, Crystal | 233.97
190.99 K, Glass | 237.29
191.39 K, Crystal | 234.63
191.78 K, Glass | 237.88
192.19 K, Crystal | 235.38
192.57 K, Glass | 238.87
192.98 K, Crystal | 236.3
193.36 K, Glass | 239.79
193.75 K, Crystal | 236.96
194.13 K, Glass | 240.95
194.54 K, Crystal | 237.79
194.91 K, Glass | 241.45
195.33 K, Crystal | 238.54
195.7 K, Glass | 241.95
196.12 K, Crystal | 239.46
196.49 K, Glass | 243.2
196.91 K, Crystal | 240.62
197.27 K, Glass | 243.95
197.7 K, Crystal | 241.29
198.06 K, Glass | 245.11
198.49 K, Crystal | 242.12
198.84 K, Glass | 245.94
199.28 K, Crystal | 243.03
199.63 K, Glass | 246.69
200 K, Crystal | 244.28
200.07 K, Crystal | 244.03
200.62 K, Glass | 248.02
201.06 K, Crystal | 245.28
202.26 K, Crystal | 246.86
203 K, Glass | 251.26
203.46 K, Crystal | 247.94
204.2 K, Glass | 252.18
204.66 K, Crystal | 249.18
205.4 K, Glass | 253.42
205.86 K, Crystal | 250.85
206.6 K, Glass | 254.76
207.05 K, Crystal | 252.26
207.79 K, Glass | 256.09
208.26 K, Crystal | 253.26
208.99 K, Glass | 257.5
209.45 K, Crystal | 254.42
210 K, Crystal | 255.34

— the NIST ThermoML archive (doi:10.1016/j.jct.2016.10.031)
